Experimental data as given in US10272110B2, “Methods for promoting HSC engraftment” (CHILDREN'S MEDICAL CENTER CORPORATION, priority 2006, dated 2019).

Tests used:
runx1, cmyb expression = test: qPCR of HSC gene expression in treated zebrafish embryos; type: in vivo
runx1/cmyb+ AGM HSCs = test: Morpholino knockdown and dmPGE2 rescue of AGM HSCs; type: in vivo, zebrafish
Method: PGE2 signals through several receptors, EP1-4, all of which are present in the zebrafish genome. Cha et al., 20 Genet. Devel.
For rescue experiments, 3-somite stage MO-injected embryos were exposed to 10 μM dmPGE2.

mouse ES cells = test: ES cell hematopoietic differentiation assays (M3434 methylcellulose and OP9 colony assays); type: cell-based
Method: ES cell hematopoietic differentiation assays were performed as previously described. […] M3434 methylcellulose colony forming and OP9 colony assays were conducted on day 6 and analyzed at […], respectively. Colony type was identified by morphological analysis; duplicate chemical exposures were averaged to determine the reported colony number (n=3 replicates minimum).

[1] = system: CFU-S from murine bone marrow cells; test: Murine colony-forming units-spleen (CFU-S); type: in vivo, mouse
Method: Two independent BM samples were treated (n=5/treatment×2 replicates) for each variable. Recipient mice were lethally irradiated with a split dose of 10 Gy. 6×10^4 unfractionated dmPGE2 or control-treated BM cells were injected retro-orbitally into irradiated recipient mice. Spleens were dissected on day eight or twelve, weighed and fixed with Bouin's solution; hematopoietic colonies per spleen were counted. 1×10^5 cells/recipient were transplanted after treatment with the cox inhibitors. FACS sorted ckit^+sca1^+lineage^− BM cells were treated as above and transplanted at a dose of either 100 cells/recipient or 300 cells/recipient.

WBM cells = test: Homing of CDFA-labeled WBM to the BM niche; type: in vivo, mouse; details: twelve hours post-transplantation, p=0.83
[2] = system: peripheral blood and bone marrow WBC; test: 5-Fluorouracil bone marrow injury; type: in vivo, mouse
Method: Mice were treated with 5-FU (150 mg/kg) as described. Venezia et al., 2004. […] Peripheral blood was obtained on day seven and day fourteen, quantified and subjected to multilineage FACS analysis using antibodies (eBioscience) to B220/IgM (B-lymphoid), CD4/8 (T-lymphoid), Mac1/Gr1 (myeloid), Ter119/CD71 (erythroid) and ckit/sca1 (stem/progenitor). Mice were sacrificed on day 16, and bone marrow was isolated, quantified and analyzed by FACS.

wnt activity [3] = test: wnt reporter TOP:dGFP zebrafish embryos; type: in vivo; details: vs control
Description: Clinical experience in patients with APC mutations has shown that inhibition of prostaglandin synthesis results in decreased wnt mediated polyp formation. […] These interactions were examined in vivo using a wnt reporter zebrafish transgenic line, TOP:dGFP. At fifty-percent epiboly, embryos were subjected either to nothing (control), indomethacin, or PGE2, and the amount of wnt signaling activated in the embryo assessed by GFP induction driven from the wnt binding site. Analysis of alterations in GFP expression in the head was analyzed by in situ hybridization. […] FIG. 12.

wnt activity [4] = test: wnt activity in kidney marrow of irradiated Top:dGFP adults; type: in vivo, zebrafish; details: day three post irradiation
Method: To determine if prostaglandin pathway manipulation can alter wnt activity in the kidney marrow repopulation in the adult, the effects of dmPGE2 and indomethacan was examined further in Top:dGFP lines. […] FIG. 14. To discern whether modulation of prostaglandin signaling can modify the wnt mediated effects on kidney marrow recovery following irradiation, wnt genes were activated by heat shock at 38° C. at two days post irradiation and then. exposure to prostaglandin pathway drugs at one day post heat shock. The hs:wnt8-GFP fish were exposed to indomethacin, while the dkk1, axin, and dnTCF transgenic fish were exposed to dmPGE2. Whole kidney marrow was analyzed by FACS on day ten post-irradiation.

CCCCC(C)(C)[C@H](O)/C=C/[C@H]1[C@H](O)CC(=O)[C@@H]1C/C=C\CCCC(=O)O [dmPGE2, 16,16-dimethyl-PGE2]
cmyb expression by qPCR (in words) (runx1, cmyb expression; 10 μM): significant alterations
runx1 expression by qPCR, enhancement (runx1, cmyb expression; dmPGE2 10 μM): 3 fold
rescue of HSCs in cox1 MO embryos (# rescued/# scored) (runx1/cmyb+ AGM HSCs; 10 μM dmPGE2): 29/52
rescue of HSCs in cox2 MO embryos (# rescued/# scored) (runx1/cmyb+ AGM HSCs; 10 μM dmPGE2): 43/60
rescue of HSCs in PGE2 synthase MO embryos (# rescued/# scored) (runx1/cmyb+ AGM HSCs; dmPGE2 addition): 25/45
reversal of diminished runx1/cmyb expression in EP2 and EP4 MO embryos (runx1/cmyb+ AGM HSCs; exogenous dmPGE2): not reversed
OP9, definitive erythroid (dE) and granulocyte/monocyte (GM) colonies (mouse ES cells; 10 μM and 20 μM): increased in a dose-dependent manner
toxicity to ES cells (mouse ES cells; 100 μM): toxic
number of multipotent GEMM colonies, enhancement (mouse ES cells; dmPGE2 10 μM, 20 μM, methylcellulose): 2.9 fold
rescue of indomethacin inhibition of colony formation (mouse ES cells; dmPGE2 10 μM, indomethacin 100 μM, methylcellulose and OP9): rescued
splenic weight and CFU-S12 in recipients of treated KSL cells ([1]; KSL BM cells, 100 or 300 cells per recipient): significantly increased
CFU-S12 Colony Number ([1]; Kit+Sca+Lin−, 100 cells transplanted, EtOH 3.0 (1.4)): 6.2 (1.2)
CFU-S12 Colony Number ([1]; Kit+Sca+Lin−, 300 cells transplanted, EtOH 5.0 (1.1)): 11.0 (1.7)
CFU-S8 colonies ([1]; WBM ex vivo 1 μM/10^6 cells): enhanced
number of CFU-S12, increase ([1]; WBM ex vivo 1 μM/10^6 cells, 6×10^4 cells transplanted): three-fold
CFU-S12 Colony Number ([1]; Whole Marrow, 6000 cells transplanted, 1 μM/10^6 cells ex vivo, day twelve, EtOH 5.8 (2.6)): 15.2 (2.2)
homing to the BM niche vs control (WBM cells): no significant difference
BM recovery following 5FU treatment ([2]; administration after 5FU): significantly enhanced BM recovery
peripheral blood (day 14) and bone marrow (day 16) WBC counts after 5-FU injury ([2]; in vivo exposure, IP, 1 mg/kg): enhanced WBC counts
wnt activity (GFP expression) in TOP:dGFP embryos (wnt activity [3]): enhance wnt signaling
wnt activity (GFP) in kidney marrow of Top:dGFP adults (wnt activity [4]): significantly enhanced wnt activity
